In the NIST ThermoML archive (doi:10.1021/je100102q):
± gives the expanded uncertainty stated by the source.

Conditions: Gas, isochoric method

C=C(F)C(F)(F)F [2,3,3,3-tetrafluoro-1-propene]
Conditions	molar volume [m3/mol]
243.07 K, 98 kPa	0.01911 ± 0.00016
243.08 K, 84.5 kPa	0.02278 ± 0.00016
248.02 K, 86.5 kPa	0.02278 ± 0.00016
249.15 K, 87 kPa	0.02278 ± 0.00016
253.01 K, 105.1 kPa	0.01912 ± 0.00016
253.07 K, 88.5 kPa	0.02278 ± 0.00016
258.03 K, 90.4 kPa	0.02279 ± 0.00016
262.93 K, 171.7 kPa	0.01189 ± 0.00016
262.97 K, 109.8 kPa	0.01913 ± 0.00016
263.08 K, 92.4 kPa	0.02279 ± 0.00016
267.98 K, 94.2 kPa	0.0228 ± 0.00016
272.84 K, 179.3 kPa	0.01189 ± 0.00016
272.92 K, 114.4 kPa	0.01914 ± 0.00016
273.04 K, 96.2 kPa	0.0228 ± 0.00016
277.99 K, 98 kPa	0.02281 ± 0.00016
282.62 K, 118.8 kPa	0.01914 ± 0.00016
282.68 K, 186.6 kPa	0.0119 ± 0.00016
282.75 K, 430.2 kPa	0.004676 ± 0.00016
282.95 K, 99.9 kPa	0.02281 ± 0.00016
283 K, 394.6 kPa	0.005292 ± 0.00016
287.79 K, 101.7 kPa	0.02282 ± 0.00016
287.93 K, 447.1 kPa	0.004677 ± 0.00016
287.99 K, 403.8 kPa	0.005293 ± 0.00016
292.58 K, 193.9 kPa	0.0119 ± 0.00016
292.76 K, 103.6 kPa	0.02282 ± 0.00016
292.81 K, 457.2 kPa	0.004678 ± 0.00016
292.95 K, 412.8 kPa	0.005295 ± 0.00016
292.99 K, 123.5 kPa	0.01915 ± 0.00016
293.1 K, 508.2 kPa	0.004171 ± 0.00016
297.8 K, 105.5 kPa	0.02283 ± 0.00016
297.89 K, 467.6 kPa	0.00468 ± 0.00016
298.08 K, 422.1 kPa	0.005296 ± 0.00016
302.7 K, 201.4 kPa	0.01191 ± 0.00016
302.91 K, 477.9 kPa	0.004681 ± 0.00016
303.09 K, 431.1 kPa	0.005297 ± 0.00016
303.11 K, 703.6 kPa	0.002968 ± 0.00016
303.12 K, 107.4 kPa	0.02284 ± 0.00016
303.12 K, 128.1 kPa	0.01916 ± 0.00016
303.12 K, 531.3 kPa	0.004173 ± 0.00016
308.1 K, 439.9 kPa	0.005298 ± 0.00016
308.11 K, 109.3 kPa	0.02284 ± 0.00016
308.11 K, 488.4 kPa	0.004682 ± 0.00016
313.09 K, 448.7 kPa	0.005299 ± 0.00016
313.11 K, 111.2 kPa	0.02285 ± 0.00016
313.11 K, 498.5 kPa	0.004683 ± 0.00016
313.11 K, 554 kPa	0.004174 ± 0.00016
313.11 K, 738.1 kPa	0.002969 ± 0.00016
313.12 K, 132.7 kPa	0.01917 ± 0.00016
313.12 K, 209 kPa	0.01192 ± 0.00016
318.09 K, 457.5 kPa	0.0053 ± 0.00016
318.09 K, 508.5 kPa	0.004684 ± 0.00016
318.1 K, 113 kPa	0.02285 ± 0.00016
318.11 K, 861.5 kPa	0.002534 ± 0.00016
323.07 K, 518.3 kPa	0.004685 ± 0.00016
323.08 K, 114.9 kPa	0.02286 ± 0.00016
323.08 K, 466.1 kPa	0.005302 ± 0.00016
323.09 K, 216.2 kPa	0.01192 ± 0.00016
323.09 K, 576.5 kPa	0.004176 ± 0.00016
323.09 K, 771.8 kPa	0.00297 ± 0.00016
323.1 K, 137.1 kPa	0.01918 ± 0.00016
328.06 K, 474.7 kPa	0.005303 ± 0.00016
328.06 K, 528.3 kPa	0.004686 ± 0.00016
328.06 K, 901.7 kPa	0.002535 ± 0.00016
328.07 K, 116.8 kPa	0.02286 ± 0.00016
333.04 K, 118.8 kPa	0.02286 ± 0.00016
333.04 K, 483.3 kPa	0.005304 ± 0.00016
333.04 K, 538.1 kPa	0.004687 ± 0.00016
333.05 K, 537.8 kPa	0.004687 ± 0.00016
333.05 K, 598.7 kPa	0.004178 ± 0.00016
333.05 K, 804.7 kPa	0.002972 ± 0.00016
333.06 K, 141.6 kPa	0.01919 ± 0.00016
333.06 K, 223.4 kPa	0.01192 ± 0.00016
338 K, 1538.8 kPa	0.001325 ± 0.00016
338.01 K, 491.8 kPa	0.005305 ± 0.00016
338.02 K, 941.5 kPa	0.002536 ± 0.00016
338.03 K, 120.6 kPa	0.02287 ± 0.00016
338.03 K, 547.6 kPa	0.004688 ± 0.00016
342.99 K, 146.1 kPa	0.0192 ± 0.00016
342.99 K, 500.3 kPa	0.005306 ± 0.00016
343 K, 122.5 kPa	0.02287 ± 0.00016
343 K, 230.6 kPa	0.01193 ± 0.00016
343.01 K, 557.3 kPa	0.004689 ± 0.00016
343.01 K, 620.6 kPa	0.00418 ± 0.00016
343.02 K, 837.4 kPa	0.002973 ± 0.00016
347.94 K, 1624.6 kPa	0.001325 ± 0.00016
347.94 K, 2217.8 kPa	0.000789 ± 0.00016
347.96 K, 508.8 kPa	0.005307 ± 0.00016
347.97 K, 124.3 kPa	0.02288 ± 0.00016
347.98 K, 980.2 kPa	0.002537 ± 0.00016
347.98 K, 2157.7 kPa	0.000833 ± 0.00016
347.99 K, 567 kPa	0.00469 ± 0.00016
352.91 K, 517.2 kPa	0.005309 ± 0.00016
352.91 K, 2303.2 kPa	0.000789 ± 0.00016
352.96 K, 126.1 kPa	0.02288 ± 0.00016
352.96 K, 576.6 kPa	0.004691 ± 0.00016
352.96 K, 642.4 kPa	0.004182 ± 0.00016
352.96 K, 869.4 kPa	0.002974 ± 0.00016
352.98 K, 150.6 kPa	0.0192 ± 0.00016
352.98 K, 237.7 kPa	0.01194 ± 0.00016
352.99 K, 2237.2 kPa	0.000833 ± 0.00016
357.86 K, 2385.6 kPa	0.000789 ± 0.00016
357.88 K, 525.6 kPa	0.00531 ± 0.00016
357.92 K, 128 kPa	0.02289 ± 0.00016
357.93 K, 586.2 kPa	0.004692 ± 0.00016
357.93 K, 1018.7 kPa	0.002538 ± 0.00016
357.95 K, 1709 kPa	0.001326 ± 0.00016
357.95 K, 2314.1 kPa	0.000833 ± 0.00016
362.83 K, 2467.7 kPa	0.000789 ± 0.00016
362.86 K, 534 kPa	0.005311 ± 0.00016
362.89 K, 129.8 kPa	0.02289 ± 0.00016
362.89 K, 2389.2 kPa	0.000833 ± 0.00016
362.92 K, 595.8 kPa	0.004693 ± 0.00016
362.92 K, 664 kPa	0.004184 ± 0.00016
362.92 K, 3067.5 kPa	0.000251
362.93 K, 155 kPa	0.01921 ± 0.00016
362.93 K, 901.2 kPa	0.002976 ± 0.00016
362.96 K, 244.9 kPa	0.01194 ± 0.00016
367.8 K, 2548.9 kPa	0.000789 ± 0.00016
367.83 K, 542.5 kPa	0.005312 ± 0.00016
367.87 K, 131.9 kPa	0.0229 ± 0.00016
367.88 K, 1057 kPa	0.002539 ± 0.00016
367.88 K, 2463.9 kPa	0.000834 ± 0.00016
367.89 K, 605.3 kPa	0.004694 ± 0.00016
367.92 K, 1791.4 kPa	0.001326 ± 0.00016
367.92 K, 3386.9 kPa	0.000251
372.8 K, 2629.5 kPa	0.000789 ± 0.00016
372.81 K, 550.9 kPa	0.005313 ± 0.00016
372.82 K, 133.8 kPa	0.0229 ± 0.00016
372.84 K, 932.4 kPa	0.002977 ± 0.00016
372.85 K, 1075.9 kPa	0.00254 ± 0.00016
372.85 K, 2537.2 kPa	0.000834 ± 0.00016
372.87 K, 614.8 kPa	0.004695 ± 0.00016
372.88 K, 159.4 kPa	0.01922 ± 0.00016
372.88 K, 252 kPa	0.01195 ± 0.00016
372.88 K, 685.4 kPa	0.004185 ± 0.00016
372.88 K, 3715.9 kPa	0.000251
